≈ marks a conversion by molar mass, not a printed value. Like-named read-outs stand apart in the source and are kept apart here.
Columns and labels:
human red blood cells = assay: Hemolytic assay; assay type: cell-based; conditions: mean (n = 2)
Procedure: Hemolysis assays were conducted using the protocols previously reported.

E. coli ATCC 25922 = assay: Enhancement of erythromycin action against E. coli; assay type: cell-based, Escherichia coli; conditions: erythromycin at 10.9 µM
Procedure: (§1) Antibiotic enhancer concentrations were determined using previously reported protocols.

[1] = tested on: Candida albicans (ATCC 90028); assay: Intrinsic antifungal activity (MIC) against C. albicans; assay type: cell-based; conditions: ATCC90028, C. albicans ATCC 90028, mean (n = 2), read-out: MIC C. a
Procedure: (§2) The susceptibility of bacterial strains Staphylococcus aureus (ATCC 25923), Escherichia coli (ATCC 25922) and Pseudomonas aeruginosa (ATCC 27853) to antibiotics and compounds was determined using previously reported protocols. Additional antimicrobial evaluation against MRSA (ATCC 43300), Klebsiella pneumoniae (ATCC 700603), Acinetobacter baumannii (ATCC 19606), Candida albicans (ATCC 90028) and Cryptococcus neoformans (ATCC 208821) was undertaken at the Community for Open Antimicrobial Drug Discovery at The University of Queensland (Australia) according to their standard protocols, as reported previously.

[2] = tested on: Escherichia coli (ATCC 25922); assay: Intrinsic antimicrobial activity (MIC) against E. coli; assay type: cell-based; conditions: ATCC25922, E. coli ATCC 25922, mean (n = 3), read-out: MIC E. c
Procedure: as §2

[3] = tested on: Pseudomonas aeruginosa (ATCC 27853); assay: Intrinsic antimicrobial activity (MIC) against P. aeruginosa; assay type: cell-based; conditions: ATCC27853, P. aeruginosa ATCC 27853, mean (n = 3), read-out: MIC P. a
Procedure: as §2

P. aeruginosa ATCC 27853 = assay: Enhancement of doxycycline action against P. aeruginosa; assay type: cell-based, Pseudomonas aeruginosa; conditions: doxycycline at 4.5 µM
Procedure: as §1

[4] = tested on: Staphylococcus aureus (ATCC 25923); assay: Intrinsic antimicrobial activity (MIC) against S. aureus; assay type: cell-based; conditions: ATCC25923, S. aureus ATCC 25923, mean (n = 3), read-out: MIC S. a
Procedure: as §2

Cytotoxicity assay = assay type: cell-based; conditions: human; HEK293 cells; mean (n = 2); read-out: Cytotoxicity: concentration of compound at 50% cytotoxicity (IC50)
Procedure: Cytotoxicity assays were conducted using the protocols previously reported.

MRSA (ATCC 43300) = assay: Intrinsic antimicrobial activity (MIC) against MRSA; assay type: cell-based; conditions: Staphylococcus aureus, read-out: MIC MRSA
Procedure: as §2

[5] = tested on: Cryptococcus neoformans (ATCC 208821); assay: Intrinsic antifungal activity (MIC) against C. neoformans; assay type: cell-based; conditions: ATCC208821, C. neoformans ATCC 208821, mean (n = 2), read-out: MIC C. n
Procedure: as §2

SMILES | Hemolysis: concentration of compound at 10% hemolytic activity (HC10) (human red blood cells) [µM] | Eryth/E. c: concentration required to restore erythromycin activity (combination MIC) (E. coli ATCC 25922) [µM] | MIC [1] [µM] | MIC [2] [µM] | MIC [3] [µM] | Dox/P. a fold change (ratio between intrinsic MIC of the test compound and combination MIC) (P. aeruginosa ATCC 27853) [fold] | Dox/P. a: concentration required to restore doxycycline activity (combination MIC) (P. aeruginosa ATCC 27853) [µM] | MIC [4] [µM] | IC50 (Cytotoxicity assay) [µM] | MIC (MRSA (ATCC 43300); MRSA ATCC 43300, mean (n = 2)) [µM] | MIC [5] [µM] | MIC (MRSA (ATCC 43300)) [µM]
Cc1cccc2c(CC(=O)NCCCNCCCCCCCCCCCCNCCCNC(=O)Cc3c[nH]c4c(C)cccc34)c[nH]c12.O=C(O)C(F)(F)F.O=C(O)C(F)(F)F [Compound 20f, N^1,N^12-Bis(3-(2-(7-methyl-1H-indol-3-yl)acetamido)propyl)dodecane-1,12-diaminium 2,2,2-trifluoroacetate] | ≤0.28 | 28.2 | ≤ 0.28 | 56.5 | > 226 | 1 | > 226 | 28.2 | > 36 | ≤ 0.28 | ≤ 0.28 | 
O=C(Cc1c[nH]c2c(F)cccc12)NCCCNCCCCCCCCCCCCNCCCNC(=O)Cc1c[nH]c2c(F)cccc12.O=C(O)C(F)(F)F.O=C(O)C(F)(F)F [Compound 18f, N^1,N^12-Bis(3-(2-(7-fluoro-1H-indol-3-yl)acetamido)propyl)dodecane-1,12-diaminium 2,2,2-trifluoroacetate] | ≤0.28 | 14.0 | ≤ 0.28 | 28 | 224 | 1 | 224 | 7 | 27.2 | ≤ 0.28 | ≤ 0.28 | 
O=C(Cc1c[nH]c2c(F)cccc12)NCCCNCCCCCCCCCCNCCCNC(=O)Cc1c[nH]c2c(F)cccc12.O=C(O)C(F)(F)F.O=C(O)C(F)(F)F [Compound 18e, N^1,N^10-Bis(3-(2-(7-fluoro-1H-indol-3-yl)acetamido)propyl)decane-1,10-diaminium 2,2,2-trifluoroacetate] | 1.49 | 57.8 | 2.31 | 116 | > 231 | 1 | 231 | 7.23 | > 37 | ≤ 0.29 | ≤ 0.29 | 
CN[C@H](CC(C)C)C(=O)N[C@H]1C(=O)N[C@@H](CC(N)=O)C(=O)N[C@H]2C(=O)N[C@H]3C(=O)N[C@H](C(=O)N[C@H](C(=O)O)c4cc(O)cc(O)c4-c4cc3ccc4O)[C@H](O)c3ccc(c(Cl)c3)Oc3cc2cc(c3O[C@@H]2O[C@H](CO)[C@@H](O)[C@H](O)[C@H]2O[C@H]2C[C@](C)(N)[C@H](O)[C@H](C)O2)Oc2ccc(cc2Cl)[C@H]1O [vancomycin, reference compound] |  |  |  |  |  |  |  |  |  |  |  | 0.7 (≈ 1.01 µg/mL)
O=C(Cc1c[nH]c2c(F)cccc12)NCCCNCCCCCCCCNCCCNC(=O)Cc1c[nH]c2c(F)cccc12.O=C(O)C(F)(F)F.O=C(O)C(F)(F)F [Compound 18d, N^1,N^8-Bis(3-(2-(7-fluoro-1H-indol-3-yl)acetamido)propyl)octane-1,8-diaminium 2,2,2-trifluoroacetate] | >38 | > 239 | > 38 | > 239 | > 239 | 1 | > 239 | 29.9 | > 38 | < 0.2 | < 0.2 | 
COc1cccc2c(CC(=O)NCCCNCCCCCCCCCCNCCCNC(=O)Cc3c[nH]c4c(OC)cccc34)c[nH]c12.O=C(O)C(F)(F)F.O=C(O)C(F)(F)F [Compound 19e, N^1,N^10-Bis(3-(2-(7-methoxy-1H-indol-3-yl)acetamido)propyl)decane-1,10-diaminium 2,2,2-trifluoroacetate] |  | 225 | > 36 | > 225 | > 225 | > 1 | 225 | 28.1 | > 36 | < 0.2 | < 0.2 | 
COc1cccc2c(CC(=O)NCCCNCCCCCCCCNCCCNC(=O)Cc3c[nH]c4c(OC)cccc34)c[nH]c12.O=C(O)C(F)(F)F.O=C(O)C(F)(F)F [Compound 19d, N^1,N^8-Bis(3-(2-(7-methoxy-1H-indol-3-yl)acetamido)propyl)octane-1,8-diaminium 2,2,2-trifluoroacetate] | >37 | > 232 | > 37 | > 232 | > 232 | 1 | > 232 | 116 | > 37 | 37.2 | ≤ 0.29 | 
OC(Cn1cncn1)(Cn1cncn1)c1ccc(F)cc1F [fluconazole, reference compound] |  |  | 0.4 (≈ 0.123 µg/mL) |  |  |  |  |  |  |  | 26 (≈ 7.96 µg/mL) | 
Cc1cccc2c(CC(=O)NCCCNCCCCCCNCCCNC(=O)Cc3c[nH]c4c(C)cccc34)c[nH]c12.O=C(O)C(F)(F)F.O=C(O)C(F)(F)F [Compound 20b, N^1,N^6-Bis(3-(2-(7-methyl-1H-indol-3-yl)acetamido)propyl)hexane-1,6-diaminium 2,2,2-trifluoroacetate] | 9.24 | 62.4 | 40 | 250 | > 250 | > 1 | 250 | 62.4 | > 40 | ≤ 0.31 | ≤ 0.31 | 
COc1cccc2c(CC(=O)NCCCNCCCCCCNCCCNC(=O)Cc3c[nH]c4c(OC)cccc34)c[nH]c12.O=C(O)C(F)(F)F.O=C(O)C(F)(F)F [Compound 19b, N^1,N^6-Bis(3-(2-(7-methoxy-1H-indol-3-yl)acetamido)propyl)hexane-1,6-diaminium 2,2,2-trifluoroacetate] |  | 240 | > 38 | 240 | > 240 | 1 | > 240 | 30 | > 38 | < 0.2 | < 0.2 | 
CC/C(=C(\c1ccccc1)c1ccc(OCCN(C)C)cc1)c1ccccc1 [tamoxifen, reference compound] |  |  |  |  |  |  |  |  | 24 |  |  | 
O=C(N[C@H](CO)[C@H](O)c1ccc([N+](=O)[O-])cc1)C(Cl)Cl [chloramphenicol, reference compound] |  |  |  |  |  |  |  | 1.5 to 3 (≈ 0.485 to 0.969 µg/mL) |  |  |  | 
Cc1cccc2c(CC(=O)NCCCNCCCCCCCCNCCCNC(=O)Cc3c[nH]c4c(C)cccc34)c[nH]c12.O=C(O)C(F)(F)F.O=C(O)C(F)(F)F [Compound 20d, N^1,N^8-Bis(3-(2-(7-methyl-1H-indol-3-yl)acetamido)propyl)octane-1,8-diaminium 2,2,2-trifluoroacetate] |  | 241 | 38.6 | 241 | > 241 | 1 | > 241 | 30.2 | > 39 | < 0.2 | < 0.2 | 
[H]/N=C(/N)N[C@H]1[C@H](O)[C@@H](O)[C@H](O[C@@H]2O[C@@H](C)[C@](O)(C=O)[C@H]2O[C@@H]2O[C@@H](CO)[C@H](O)[C@@H](O)[C@@H]2NC)[C@@H](N/C(N)=N\[H])[C@@H]1O [streptomycin, reference compound] |  |  |  | 21.5 (≈ 12.5 µg/mL) | 21.5 (≈ 12.5 µg/mL) |  |  | 21.5 (≈ 12.5 µg/mL) |  |  |  | 
